Experimental data taken from publication PMC11111408, “Concurrent inhibition of oncogenic and wild-type RAS-GTP for cancer therapy” (Nature, 2024).

Legend:
KRAS^G13D = KRAS^G13D (Homo sapiens, UniProt P01116+P62937, G13D); assay: Cellular RAS–RAF (CRAF RBD) disruption, nano-BRET in U2OS cells; assay type: cell-based; details: (95% CI)
Description: KRAS4B, or other small GTPases, containing the indicated mutations were cloned in pNLF-N or pHTN plasmids for expression with an N-terminal nanoluciferase or HaloTag fusion, respectively. […] The following day, the cells were collected by Trypsin and reseeded in a white tissue culture-treated 96-well plate in OptiMem phenol red-free medium (Gibco) containing 4% FBS and a 1:1,000 dilution of NanoBRET 618 HaloTag ligand (Promega). For endpoint concentration response curves, vivazine nanoluciferase substrate was added to 1× concentration in OptiMem phenol red-free medium with 4% FBS. Varying concentrations of inhibitor were added and incubated for 1 or 4 h before the nano-BRET signal was measured on a Perkin Elmer Envision plate reader. For kinetic assays, endurazine nanoluciferase substrate was used in place of vivazine, and the plate was placed in a Cytation5 multi-mode reader pre-equilibrated to 37 °C and 5% CO2.

A375 cells = assay: Cellular ERK phosphorylation (pERK); assay type: cell-based, human
NCI-H441 CDX tumours = assay: NCI-H441 CDX efficacy study; assay type: in vivo, mouse; details: NCI-H441 model, 10 mg kg^−1 daily oral, 28 days
Description: Xenograft studies were conducted at GenenDesign, Pharmaron, Wuxi AppTec, the laboratory of P. Lito, and the laboratory of C. Ambrogio. […] All procedures related to animal handling, care and treatment were conducted in compliance with all applicable regulations and guidelines of the relevant Institutional Animal Care and Use Committee (IACUC). […] Experimental details are supplied in the Supplementary Methods.

KRAS^G12V = KRAS^G12V (Homo sapiens, UniProt P01116+P62937, G12V); assay: RAS binding affinity of compound-bound CYPA (Kd2), SPR; set-up: His6-TEV (N); made in house; host or cells: BL21(DE3) Escherichia coli; details: steady state, (95% CI)

## CCn1c(-c2cc(N3CCN(C4CC4)CC3)cnc2[C@H](C)OC)c2c3cc(ccc31)-c1csc(n1)C[C@H](NC(=O)[C@H]1[C@@H]3COC[C@@H]31)C(=O)N1CCC[C@H](N1)C(=O)OCC(C)(C)C2 [RMC-7977]
KRAS^G13D
  EC50: 15.4 nM
A375 cells; A375, BRAF^V600E, RAS-independent
  inhibition of downstream signalling (pERK): No inhibition
A375 cells; Homo sapiens, A-375, A375 (BRAF^V600E)
  EC50: > 10000 nM
NCI-H441 CDX tumours
  mean tumour regression: 83%
KRAS^G12V
  Kd: 85 nM
